Values quoted from earlier work in publication PMC9663686, “Proline, hydroxyproline, and pyrrolidone carboxylic acid derivatives as highly efficient but reversible transdermal permeation enhancers” (Scientific Reports, 2022).

Columns and labels:
rats = details: cited from earlier work
HaCaT and 3T3 cells = details: read-out: in vitro cellular toxicities on HaCaT and 3T3 cells; cited from earlier work
rat skin = details: rats; cited from earlier work

In the case of `CCCCCCCCCCCCOC(=O)CCCCCN.CCCCCCCCCCCCOC(=O)CCCCCNC(=O)O` [Transkarbam 12], the “acute oral toxicity in rats” value (rats) is listed as “no acute oral toxicity in rats”, the IC50 (HaCaT and 3T3 cells) is listed as 21 to 26 µM and the “in vivo dermal irritation and toxicity” value (rat skin) is listed as “low in vivo dermal irritation and toxicity”.
